Assay type in all cases: cell-based, Saccharomyces cerevisiae
For assay [1], the system named is transformed budding yeast AH22-BcOS1-I365S. Nature of the assay: Antifungal compound sensitivity test, transformed budding yeast AH22-BcOS1-I365S (Example 6). The settings on record: absorbance at 600 nm relative to 0 ppm = 100. The text has this:
Degrees of growths of both of the transformed budding yeasts cultured under the presence of Compounds (1) to (7) and budding yeast as a control therefor are shown in Table 2. Degrees of growths of both of the transformed budding yeasts and budding yeast as a control are expressed by a relative value in percentage, letting the absorbance at 600 nm at the concentration of the Compound of 0 ppm to be 100. It was confirmed that an inhibiting degree of growth of the transformed budding yeast TM182-BcOS1-I 365S by each test substance was grater than an inhibiting degree of growth of the transformed budding yeast AH22-BcOS1-I 365S by each test substance, and the transformed budding yeast TM182-BcOS1-I365S was a transformed cell with the enhanced sensitivity to an antifungal compound as compared with the transformed budding yeast AH22-BcOS1-I365S.

In assay [2] the test system is transformed budding yeast AH22-BcOS1. Nature of the assay: Antifungal compound sensitivity test, transformed budding yeast AH22-BcOS1 (Example 3). The settings on record: 30° C. 48 hours, absorbance at 600 nm relative to 0 ppm = 100. The procedure: The transformed budding yeast AH22-BcOS1 prepared in Example 2 was cultured while shaking at 30° C. for 18 hours in a Glu-Leu medium. As a control, the AH22 strain was similarly cultured while shaking at 30° C. for 18 hours in a Glu medium. The absorbance at 600 nm of each of the grown transformed budding yeasts in a cell suspension was measured, and a cell suspension diluted with sterilized distilled water to the absorbance of 0.1 was prepared. Further, a cell suspension in which the aforementioned cell suspension of the transformed budding yeast AH22-BcOS1 was diluted 200-fold with a Glu-Leu medium, and a cell suspension in which the aforementioned cell suspension of the AH22 strain was diluted 200-fold with a Glu medium were prepared. A solution in which each of Compounds (1) to (3) was dissolved in dimethylsulfoxide (DMSO) to the concentration of 60 ppm, a solution in which each of Compounds (4) and (5) was dissolved in dimethylsulfoxide (DMSO) to the concentration of 2000 ppm, and a solution in which each of Compounds (6) and (7) was dissolved in dimethylsulfoxide (DMSO) to the concentration of 20 ppm were prepared, and two microplates were prepared in which each 2.0 μL per well of the Compound solution and DMSO as a control were dispensed into two wells. In one microplate among them, each 200 μL of cell suspensions of the transformed budding yeast AH22-BcOS1 which had been prepared by dilution as described above was dispensed, and cultured by allowing to stand at 30° C. for 48 hours. In another microplate, each 200 μL of the cell suspensions of the control yeast AH22 strain which had been prepared by dilution as described above was dispensed, and cultured by allowing to stand at 30° C. for 48 hours. After culturing, the absorbance at 600 nm of each well was measured with a microplate reader.
Degree of growths of both of the transformed budding yeasts cultured under the presence of each of Compound (1) to (7) and budding yeast as a control therefor are shown in Table 1. Degree of growths of both of the transformed budding yeasts and budding yeasts as a control therefor are expressed by a relative value in percentage, letting the absorbance at 600 nm in a well having the concentration of the aforementioned Compound of 0 ppm to be 100. It was confirmed that an inhibiting degree of growth of TM182-BcOS1 by each test substance was grater than an inhibiting degree of growth of AH22-BcOS1 by each test substance, and the TM182-BcOS1 was a transformed cell with the enhanced sensitivity to an antifungal compound as compared with AH22-BcOS1.

In assay [3] the test system is transformed budding yeast TM182-FoOS1. Nature of the assay: Antifungal compound sensitivity test of transformed budding yeast TM182-FoOS1 (Example 13). As to conditions: for Degree of growth of budding yeast TM182-FoOS1 Gal-Ura-Leu medium: control medium, 30° C. 51 hours; for Degree of growth of budding yeast TM182-FoOS1 Gul-Ura-Leu medium: 30° C. 25 hours. The procedure:
Similarly, the transformed budding yeast TM182-FoOS1 prepared in Example 12 was cultured at 30° C. for 18 hours in a Glu-Ura-Leu medium. The absorbance at 600 nm of the grown transformed budding yeast in a cell suspension was measured, and a cell suspension diluted with sterilized distilled water to the absorbance of 0.1 was prepared. Further, a cell suspension in which the transformed budding yeast TM182-FoOS1 was diluted 50-fold with a Glu-Ura-Leu medium and, as a control, a cell suspension in which the yeast was diluted 50-fold with a Gal-Ura-Leu medium were prepared.
A solution in which each of Compounds (1) to (3) was dissolved in dimethylsulfoxide (DMSO) to the concentration of 600 ppm, a solution in which each of Compounds […] and (5) was dissolved in dimethylsulfoxide (DMSO) to the concentration of 2000 ppm, and a solution in which each of Compounds (6) and (7) was dissolved in dimethylsulfoxide (DMSO) to the concentration of 20 ppm were prepared, and two microplates were prepared in which each 2.0 μL per well of the Compound-DMSO solution and DMSO as a control were dispensed into 2 wells. In one microplate among them, each 100 μL of cell suspensions of the transformed budding yeast TM182-FoOS1 which had been prepared by dilution with a Glu-Ura-Leu medium as described above was dispensed, and cultured by allowing to stand at 30° C. for 25 hours. In another microplate, as described above, as a control, each 100 μL of cell suspensions of the transformed budding yeast TM182-FoOS1 which had been prepared by dilution with a Gal-Ura-Leu medium was dispensed, and cultured at 30° C. for 51 hours. After culturing, the absorbance at 600 nm of each well was measured with a microplate reader.
A degree of growth of the transformed budding yeast is expressed as a relative value in percentage, letting the absorbance at 600 nm at the concentration of the Compound of 0 ppm to be 100. It was confirmed that an inhibiting degree of growth of the transformed budding yeast TM182-FoOS1 by each test substance was grater than an inhibiting degree of growth of the transformed budding yeast AH22-FoOS1 by each test substance, and the transformed budding yeast TM182-FoOS1 was a transformed cell with the enhanced sensitivity to an antifungal compound as compared with the transformed budding yeast AH22-FoOS1.

We go through seven compounds from patent US7452688B2, “Transformed cell with enhanced sensitivity to antifungal compound and use thereof” (Sumitomo Chemical Company, Limited, priority 2002, dated 2008).

For the compound `COP(=S)(OC)Oc1c(Cl)cc(C)cc1Cl` [Compound (5), Tolclofos-methyl], the “Degree of growth of budding yeast (%) AH22-BcOS1-I365S Glu-Leu medium” value (“Degree … (%) AH22-BcOS1-I365S Glu-Leu medium” below) in assay [1] (final concentration 20 ppm) is recorded as 64%. Moreover, the “Degree of growth of budding yeast (%) AH22-BcOS1 Glu-Leu medium” value (from here on “Degree … (%) AH22-BcOS1 Glu-Leu medium”) in assay [2] (final concentration 20 ppm) came to 79%. Besides, in assay [3] (final concentration 20 ppm), the “Degree of growth of budding yeast TM182-FoOS1 Gal-Ura-Leu medium” value came out at 80% and the “Degree of growth of budding yeast TM182-FoOS1 Gul-Ura-Leu medium” value was determined as 57%.
In the case of `O=[N+]([O-])c1c(Cl)c(Cl)c(Cl)c(Cl)c1Cl` [Compound (4), Quintozene], in assay [1] (final concentration 20 ppm), the “Degree … (%) AH22-BcOS1-I365S Glu-Leu medium” value is given as 83%. In assay [2] (final concentration 20 ppm), the “Degree … (%) AH22-BcOS1 Glu-Leu medium” value stood at 45%. In assay [3] (final concentration 20 ppm), the “Degree of growth of budding yeast TM182-FoOS1 Gal-Ura-Leu medium” value is 104% and the “Degree of growth of budding yeast TM182-FoOS1 Gul-Ura-Leu medium” value came out at 20%.
Regarding `N#Cc1c[nH]cc1-c1cccc(Cl)c1Cl` [Compound (7), Fenpiclonil], in assay [1] (final concentration 0.2 ppm), the “Degree … (%) AH22-BcOS1-I365S Glu-Leu medium” value came out at 79%. The “Degree … (%) AH22-BcOS1 Glu-Leu medium” value in assay [2] (final concentration 0.2 ppm) worked out at 94%. In addition, in assay [3] (final concentration 0.2 ppm), the “Degree of growth of budding yeast TM182-FoOS1 Gal-Ura-Leu medium” value is reported as 89% and the “Degree of growth of budding yeast TM182-FoOS1 Gul-Ura-Leu medium” value is on record as 21%.
Regarding `N#Cc1c[nH]cc1-c1cccc2c1OC(F)(F)O2` [Compound (6), Fludioxonil], the “Degree … (%) AH22-BcOS1-I365S Glu-Leu medium” value in assay [1] (final concentration 0.2 ppm) turned out to be 67%. Moreover, the “Degree … (%) AH22-BcOS1 Glu-Leu medium” value in assay [2] (final concentration 0.2 ppm) was determined as 81%. Further, in assay [3] (final concentration 0.2 ppm), the “Degree of growth of budding yeast TM182-FoOS1 Gal-Ura-Leu medium” value was 99% and the “Degree of growth of budding yeast TM182-FoOS1 Gul-Ura-Leu medium” value was determined as 7%.
With `C=CC1(C)OC(=O)N(c2cc(Cl)cc(Cl)c2)C1=O` (stereo not shown) [Compound (3), Vinclozolin], the “Degree … (%) AH22-BcOS1-I365S Glu-Leu medium” value in assay [1] (final concentration 6 ppm) was 75%. For the same compound, the “Degree … (%) AH22-BcOS1 Glu-Leu medium” value in assay [2] (final concentration 0.6 ppm) stood at 93%. Also, in assay [3] (final concentration 6 ppm), the “Degree of growth of budding yeast TM182-FoOS1 Gal-Ura-Leu medium” value was 99% and the “Degree of growth of budding yeast TM182-FoOS1 Gul-Ura-Leu medium” value turned out to be 22%.
`CC(C)NC(=O)N1CC(=O)N(c2cc(Cl)cc(Cl)c2)C1=O` [Compound (2), Iprodione]: in assay [1] (final concentration 6 ppm), the “Degree … (%) AH22-BcOS1-I365S Glu-Leu medium” value was found to be 81%. In addition, the “Degree … (%) AH22-BcOS1 Glu-Leu medium” value in assay [2] (final concentration 0.6 ppm) is on record as 92%. Moreover, in assay [3] (final concentration 6 ppm), the “Degree of growth of budding yeast TM182-FoOS1 Gal-Ura-Leu medium” value worked out at 87% and the “Degree of growth of budding yeast TM182-FoOS1 Gul-Ura-Leu medium” value is recorded as 55%.
Consider `CC12CC1(C)C(=O)N(c1cc(Cl)cc(Cl)c1)C2=O` (stereo not shown) [Compound (1), Procymidone], for which the “Degree … (%) AH22-BcOS1-I365S Glu-Leu medium” value in assay [1] (final concentration 6 ppm) is 68%. In addition, the “Degree … (%) AH22-BcOS1 Glu-Leu medium” value in assay [2] (final concentration 0.6 ppm) was found to be 90%. Besides, in assay [3] (final concentration 6 ppm), the “Degree of growth of budding yeast TM182-FoOS1 Gal-Ura-Leu medium” value amounted to 116% and the “Degree of growth of budding yeast TM182-FoOS1 Gul-Ura-Leu medium” value is 26%.
